Series [1] has as its target NS3 (Hepatitis C virus, UniProt A3EZJ3). The experiment in a line: PubChem AID 2173. Details: species or system Hepacivirus hominis.
Series [2] addresses Induced myeloid leukemia cell differentiation protein Mcl-1 (Homo sapiens, UniProt Q07820). The class given is functional.
Series [3] concerns the target T1, Heat shock factor protein 1 (Mus musculus, UniProt P38532).
T1 sequence (P38532 whole entry): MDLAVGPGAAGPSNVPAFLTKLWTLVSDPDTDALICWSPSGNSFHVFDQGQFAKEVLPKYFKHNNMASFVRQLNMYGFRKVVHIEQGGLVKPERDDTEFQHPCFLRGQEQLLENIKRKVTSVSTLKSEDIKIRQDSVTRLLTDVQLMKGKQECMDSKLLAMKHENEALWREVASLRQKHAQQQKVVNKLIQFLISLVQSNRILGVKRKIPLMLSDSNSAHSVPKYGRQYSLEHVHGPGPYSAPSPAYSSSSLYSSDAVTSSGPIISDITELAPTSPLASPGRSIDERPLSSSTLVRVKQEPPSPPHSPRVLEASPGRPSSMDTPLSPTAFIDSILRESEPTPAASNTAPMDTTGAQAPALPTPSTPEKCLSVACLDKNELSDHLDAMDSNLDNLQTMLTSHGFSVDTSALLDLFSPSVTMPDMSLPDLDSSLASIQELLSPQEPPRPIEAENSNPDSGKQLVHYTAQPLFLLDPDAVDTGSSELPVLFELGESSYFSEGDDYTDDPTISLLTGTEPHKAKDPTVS
Description: HSF1 potentiators in luciferase reporter cells, confirmation, cell-based, NIH3T3, luminescence, dose retest (AID 435004).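 Also: stress induced by proteasome inhibitor MG132 added 30 min after compound; luciferase reporter driven by HSF1 response element in NIH3T3 cells; actives raise luminescence as potentiators of the MG132 stress response.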 The class given is functional.

Series [4] deals with Cytochrome P450 2D6 (Homo sapiens, UniProt P10635).
Series [5] addresses T2, Alkaline phosphatase, tissue-nonspecific isozyme (Homo sapiens, UniProt P05186).
T2 sequence (P05186 whole entry): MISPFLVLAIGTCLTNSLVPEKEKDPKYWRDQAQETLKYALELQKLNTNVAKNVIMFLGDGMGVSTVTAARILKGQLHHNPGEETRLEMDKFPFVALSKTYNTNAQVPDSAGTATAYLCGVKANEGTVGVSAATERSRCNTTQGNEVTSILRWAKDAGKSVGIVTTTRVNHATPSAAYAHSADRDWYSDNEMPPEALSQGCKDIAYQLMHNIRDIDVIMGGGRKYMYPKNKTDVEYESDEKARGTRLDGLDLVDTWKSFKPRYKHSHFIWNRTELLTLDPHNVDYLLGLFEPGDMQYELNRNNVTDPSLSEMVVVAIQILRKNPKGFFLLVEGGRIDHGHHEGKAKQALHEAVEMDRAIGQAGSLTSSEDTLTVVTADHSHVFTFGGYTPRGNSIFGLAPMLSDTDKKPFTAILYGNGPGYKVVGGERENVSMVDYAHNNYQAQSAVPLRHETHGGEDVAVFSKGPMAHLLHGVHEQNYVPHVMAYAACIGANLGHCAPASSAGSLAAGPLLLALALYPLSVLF

Series [6] concerns the target Cytochrome P450 2C9 (Homo sapiens, UniProt P11712).
Series [7] in a line: MC4R antagonists, dose response, counter-screen for LGR2 antagonist project, cell-based, plate reader, cherry pick (AID 743444).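 Also: transfected HEK 293 cells stimulated with alpha-MSH peptide; potency of inhibitors of the alpha-MSH evoked signal.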 The format is functional.
The nature of series [8]: off-target signal loss in HeLa-CEM21 co-culture – HeLa F-luc CTL cells, cherry-picked, counter-screen for HIV-1 Env fusion inhibitor project, dose response (AID 652040).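 Also: potency for signal decrease marking cytotoxic or nonspecific inhibition.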 The class given is functional, cell-based.
Series [9] relates to Jurkat. Description: antigen receptor-induced NF-kB inhibitors, dose response, Jurkat, luciferase reporter, luminescence, B- and T-cell (AID 489004).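 Also: NF-kB luciferase reporter Jurkat cells stimulated with PMA plus ionomycin.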 The class given is functional, cell-based. The following applies: Homo sapiens.
The nature of series [10]: inhibitors of clade B AD8 Env fusion, dose response, cell-based, cherry-pick (AID 652062).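 Also: luciferase signal from cell-cell fusion driven by HIV-1 clade B AD8 Env; potency is for inhibitors of fusion seen as a drop in luminescence.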 The format is functional.
Series [11] in a line: ZM109 Env clade C HIV-1 fusion inhibitors, dose response, HeLa effector, CEM target cells, luciferase, cherry-pick (AID 652058). The class given is functional, cell-based.
Series [12] in a line: LGR2 antagonists, dose response, cell-based, HEK293, CRE-luciferase reporter, cherry pick, set 2 (AID 743343).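 Also: transfected cells were stimulated with diluted bursicon conditioned medium after compound addition.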 The format is functional.
Series [13] can be described thus: luciferase reporter signal reduction – luminescence, H4-C neuroglioblastoma cells, dose response (AID 2458).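 Also: H4 neuroglioblastoma cells stably carrying a luciferase reporter gene fusion.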 The class given is functional, cell-based.
Series [14] in a line: inhibitors of firefly luciferase expression or activity, dose response, H4 neuroglioma cells, luminescence (AID 1990). The format is functional, cell-based.
Series [15] can be described thus: reduction of Shn3 3'UTR firefly luciferase signal, dose response, Schnurri-3 inhibitor project, cell-based, Clone20 osteoblasts, cherry-pick, set 2 (AID 720490).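 Also: actives lower the luminescence signal as inhibitors.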 The format is functional.
For series [16], the target named is Luciferin 4-monooxygenase (Photuris pensylvanica, UniProt Q27757). The experiment in a line: firefly luciferase enzyme inhibitors, dose response, counter-screen for HSF-1 reporter inhibitor project, biochemical, Cell Titer Glo, luminescence, cherry-picks (AID 588847).
The nature of series [17]: cells. The class given is functional, cell-based.
A short description of series [18]: inhibitors of control Renilla luciferase reporter, dose response, counter-screen for Shn3 3'UTR targeting project, Clone20-Shn3RL cells, dual-Glo, cherry-pick, set 2 (AID 720724). The format is functional, cell-based. The following applies: Dual-Go Shn3RL.
Series [19] is described as follows: Shn3 3'UTR reporter inhibitors, dose response, cell-based, Clone20 osteoblasts, firefly luciferase, cherry-picked (AID 624132).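 Also: firefly luciferase luminescence from reporter carrying the Shn3 3'UTR in osteoblasts.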 The class given is functional.
Series [20] can be described thus: cytotoxicity in HEK-293T NF-kB-Luc cells, dose response, cytotoxicity control for B/T-cell NF-kB inhibitor project, cell-based, uHTS hits (AID 489019).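 Also: IC50 reflects cytotoxicity as loss of cell viability.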 The class given is functional.
For series [21], the target named is Heat shock protein HSP 90-alpha (Homo sapiens, UniProt P07900). The experiment in a line: Luminescence-based dose response biochemical high throughput screening assay for inhibitors of the Heat Shock Protein 90 (HSP90). [Related pubchem assays: 1831 (Summary AID.), 1846 (Confirmation screen.), 1789 (Primary screen.)].
The nature of series [22]: Luminescence Cell-Based Dose Response HTS to Identify Inhibitors of 5'UTR Stem-Loop Driven Prion Protein mRNA Translation in H4 Neuroglioblastoma Cells. [Related pubchem assays: 1827 (Project Summary), 1813 (Primary HTS)]. The class given is functional.
The target in series [23] is T1, Heat shock factor protein 1. Description: inhibition of MG132-induced HSE-luciferase signal, confirmation, cell-based, NIH3T3, luminescence, dose retest (AID 2382).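 Also: NIH3T3 fibroblasts with HSF1-driven luciferase reporter stressed by proteasome inhibitor MG132; luminescence from HSF1-driven luciferase expression after 8 hours of MG132 stress.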 The format is functional.
The nature of series [24]: inhibitors of SNCA 5'UTR-driven reporter translation, confirmation, H4 neuroglioma cells, luminescence (AID 1988). The class given is functional, cell-based.
Series [25] in a line: inhibitors of HIV Env-driven cell fusion, dose response, cherry-pick (AID 652057). The format is functional, cell-based.
Series [26] is described as follows: inhibitors of SNCA 5'UTR-driven translation, confirmation, luminescence, H4 neuroglioblastoma cells, dose confirmation (AID 2454).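 Also: H4 neuroglioblastoma cells carrying an alpha-synuclein 5'UTR luciferase reporter; potency for inhibition of the luciferase signal.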 The class given is functional, cell-based.
Series [27] addresses Mothers against decapentaplegic homolog 3 (Homo sapiens, UniProt P84022). The experiment in a line: Smad3 binding inhibitors, lysate ELISA, dose response, cell lysate, secondary confirmation, chemiluminescent ELISA, HEK293 lysate (AID 1058). The format is functional.
Series [28] relates to Streptococcus. The experiment in a line: Luminescence Microorganism-Based Dose Response Follow up to Identify Compounds Cytotoxic to Streptococcus. [Related pubchem assays: 1677 (Project Summary), 1915, 1914, 1902 (Retest at Dose), 1900 (Counter Screen), 1662 (Primary HTS)]. The format is functional, organism-based.
Series [29] in a line: microbe, parasite or virus in culture. The format is functional. The following applies: Mycobacterium tuberculosis.
Series [30] has as its target Neuropeptide Y receptor type 2 (Homo sapiens, UniProt P49146). The experiment in a line: Fluorescence-based cell-based high-throughput dose response assay for agonists of NPY-Y2. [Related pubchem assays: 1703 (Screening assay (CNGC inhibitors).), 1359 (Screening assay (NPY-Y2 potentiators or agonists).), 1304 (Screening assay (NPY-Y1 potentiators or agonists).), 1710 (Screening assay (NPY-Y2 agonists).), 1791 (Summary AID.)]. The format is functional.

Series [31] has as its target Neuropeptide Y receptor type 1 (Homo sapiens, UniProt P25929). Description: Fluorescence-based counterscreen for agonists of NPY-Y2: cell-based high-throughput dose response assay for agonists of NPY-Y1. The class given is functional.
In series [32] the test system is HEK293. Description: Fluorescence-based counterscreen for potentiators or agonists of NPY-Y2: cell-based high-throughput dose response assay to identify inhibitors of cyclic nucleotide gated ion channel (CNGC) activity. In this assay, the parental HEK293 cell line transfected with a cyclic-nucleotide gated ion channel (CNGC)-based cAMP sensor is used to measure inhibition of isoproterenol-induced CNGC activity by test compound. The format is functional. The following applies: Homo sapiens.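 Also: stimulus is 1 µM isoproterenol at EC100 plus PDE inhibitor Ro 20-1724 at 25 µM.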

This note sets out measurements from ChEMBL document CHEMBL1201862, “PubChem BioAssay data set” (2004).

Each structure is given as a SMILES string. Calls of active or inactive are those of the source.

Sequence of Cytochrome P450 2C9 (P11712 whole entry): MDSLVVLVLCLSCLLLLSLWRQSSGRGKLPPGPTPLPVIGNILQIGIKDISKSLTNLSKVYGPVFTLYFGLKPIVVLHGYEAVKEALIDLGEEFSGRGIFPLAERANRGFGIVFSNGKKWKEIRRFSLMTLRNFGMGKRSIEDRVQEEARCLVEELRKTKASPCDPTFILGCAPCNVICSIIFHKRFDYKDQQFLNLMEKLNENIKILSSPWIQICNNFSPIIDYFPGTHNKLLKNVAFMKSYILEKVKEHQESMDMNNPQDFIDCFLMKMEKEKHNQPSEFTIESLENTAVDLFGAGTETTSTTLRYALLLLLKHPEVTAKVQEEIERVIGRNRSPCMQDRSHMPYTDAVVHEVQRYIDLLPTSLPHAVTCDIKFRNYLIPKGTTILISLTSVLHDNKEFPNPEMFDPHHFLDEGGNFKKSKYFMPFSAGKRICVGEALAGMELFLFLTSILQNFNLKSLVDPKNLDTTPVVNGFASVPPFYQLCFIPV
Sequence of NS3 (A3EZJ3 whole entry): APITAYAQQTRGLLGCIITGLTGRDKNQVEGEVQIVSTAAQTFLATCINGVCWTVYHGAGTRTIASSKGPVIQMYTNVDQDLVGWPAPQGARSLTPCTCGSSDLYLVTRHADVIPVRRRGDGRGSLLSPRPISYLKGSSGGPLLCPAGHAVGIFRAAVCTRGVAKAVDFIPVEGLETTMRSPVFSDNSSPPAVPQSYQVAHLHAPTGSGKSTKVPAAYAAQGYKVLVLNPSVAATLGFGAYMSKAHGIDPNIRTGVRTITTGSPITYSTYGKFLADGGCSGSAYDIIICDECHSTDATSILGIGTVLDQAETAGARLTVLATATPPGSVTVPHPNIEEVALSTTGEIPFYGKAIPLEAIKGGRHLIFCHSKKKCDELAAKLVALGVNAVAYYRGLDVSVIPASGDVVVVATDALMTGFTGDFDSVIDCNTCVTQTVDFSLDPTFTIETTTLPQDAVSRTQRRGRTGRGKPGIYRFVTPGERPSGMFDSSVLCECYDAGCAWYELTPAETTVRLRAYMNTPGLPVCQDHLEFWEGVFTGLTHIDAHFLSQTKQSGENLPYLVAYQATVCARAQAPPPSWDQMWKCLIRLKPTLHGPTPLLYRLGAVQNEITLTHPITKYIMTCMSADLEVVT
Sequence of Neuropeptide Y receptor type 2 (P49146 whole entry): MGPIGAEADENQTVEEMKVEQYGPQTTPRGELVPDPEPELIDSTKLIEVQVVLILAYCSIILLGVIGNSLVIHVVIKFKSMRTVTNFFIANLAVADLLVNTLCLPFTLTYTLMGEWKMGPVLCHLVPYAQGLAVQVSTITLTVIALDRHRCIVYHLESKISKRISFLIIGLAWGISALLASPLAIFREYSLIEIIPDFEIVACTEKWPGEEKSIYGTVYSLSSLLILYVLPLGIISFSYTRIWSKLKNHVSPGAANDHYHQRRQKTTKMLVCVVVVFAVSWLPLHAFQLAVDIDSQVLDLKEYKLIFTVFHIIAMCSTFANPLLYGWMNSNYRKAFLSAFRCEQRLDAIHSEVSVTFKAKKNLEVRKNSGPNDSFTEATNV
Sequence of Mothers against decapentaplegic homolog 3 (P84022 whole entry): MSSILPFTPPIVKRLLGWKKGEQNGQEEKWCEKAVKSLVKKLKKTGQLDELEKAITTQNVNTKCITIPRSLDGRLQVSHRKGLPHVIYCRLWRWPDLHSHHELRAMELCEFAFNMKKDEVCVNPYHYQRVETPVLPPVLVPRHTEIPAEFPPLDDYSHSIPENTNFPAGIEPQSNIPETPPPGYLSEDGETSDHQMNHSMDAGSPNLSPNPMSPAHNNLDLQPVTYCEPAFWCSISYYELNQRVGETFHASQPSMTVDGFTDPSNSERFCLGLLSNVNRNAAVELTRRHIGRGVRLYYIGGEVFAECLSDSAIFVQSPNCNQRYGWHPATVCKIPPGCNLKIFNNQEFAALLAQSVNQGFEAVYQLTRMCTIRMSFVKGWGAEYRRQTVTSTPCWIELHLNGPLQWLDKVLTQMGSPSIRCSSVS
Sequence of Neuropeptide Y receptor type 1 (P25929 whole entry): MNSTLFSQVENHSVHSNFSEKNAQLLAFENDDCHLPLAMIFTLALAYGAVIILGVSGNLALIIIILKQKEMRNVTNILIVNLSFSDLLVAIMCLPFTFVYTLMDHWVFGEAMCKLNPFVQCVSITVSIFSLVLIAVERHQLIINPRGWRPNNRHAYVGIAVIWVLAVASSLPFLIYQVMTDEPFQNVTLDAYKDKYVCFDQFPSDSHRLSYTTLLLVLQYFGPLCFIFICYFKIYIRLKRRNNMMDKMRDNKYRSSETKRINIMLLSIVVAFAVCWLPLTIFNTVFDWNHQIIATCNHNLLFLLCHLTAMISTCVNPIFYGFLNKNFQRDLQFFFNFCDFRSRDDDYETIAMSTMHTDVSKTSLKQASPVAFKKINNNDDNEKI
Sequence of Luciferin 4-monooxygenase (Q27757 whole entry): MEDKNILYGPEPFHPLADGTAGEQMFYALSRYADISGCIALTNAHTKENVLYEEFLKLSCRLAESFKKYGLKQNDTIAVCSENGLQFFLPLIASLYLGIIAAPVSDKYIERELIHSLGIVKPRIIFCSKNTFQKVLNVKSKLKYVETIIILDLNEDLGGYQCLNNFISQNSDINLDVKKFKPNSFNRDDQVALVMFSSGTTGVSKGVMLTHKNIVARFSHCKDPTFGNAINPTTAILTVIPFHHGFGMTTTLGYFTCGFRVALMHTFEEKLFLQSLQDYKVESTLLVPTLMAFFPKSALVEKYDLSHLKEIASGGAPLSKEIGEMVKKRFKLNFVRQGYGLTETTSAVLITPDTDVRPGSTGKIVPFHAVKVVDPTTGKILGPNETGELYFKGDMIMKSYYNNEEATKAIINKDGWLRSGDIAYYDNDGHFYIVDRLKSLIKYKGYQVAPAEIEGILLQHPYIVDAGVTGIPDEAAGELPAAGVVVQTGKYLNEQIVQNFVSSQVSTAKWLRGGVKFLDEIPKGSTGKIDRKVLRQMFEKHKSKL
Sequence of Cytochrome P450 2D6 (P10635 whole entry): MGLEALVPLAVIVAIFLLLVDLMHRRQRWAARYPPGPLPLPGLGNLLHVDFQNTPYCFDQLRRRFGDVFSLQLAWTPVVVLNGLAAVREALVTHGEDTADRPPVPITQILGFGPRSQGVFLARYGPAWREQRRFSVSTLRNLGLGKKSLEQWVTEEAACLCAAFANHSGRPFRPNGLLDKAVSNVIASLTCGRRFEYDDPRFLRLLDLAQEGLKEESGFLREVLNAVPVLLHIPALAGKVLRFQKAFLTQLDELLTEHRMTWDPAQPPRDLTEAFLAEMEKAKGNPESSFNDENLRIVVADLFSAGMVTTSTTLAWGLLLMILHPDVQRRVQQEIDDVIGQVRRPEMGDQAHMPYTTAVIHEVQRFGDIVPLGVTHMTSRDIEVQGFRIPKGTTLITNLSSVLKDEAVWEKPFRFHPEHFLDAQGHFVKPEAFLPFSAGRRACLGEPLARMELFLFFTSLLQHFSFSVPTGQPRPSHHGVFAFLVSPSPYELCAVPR
Sequence of Induced myeloid leukemia cell differentiation protein Mcl-1 (Q07820 whole entry): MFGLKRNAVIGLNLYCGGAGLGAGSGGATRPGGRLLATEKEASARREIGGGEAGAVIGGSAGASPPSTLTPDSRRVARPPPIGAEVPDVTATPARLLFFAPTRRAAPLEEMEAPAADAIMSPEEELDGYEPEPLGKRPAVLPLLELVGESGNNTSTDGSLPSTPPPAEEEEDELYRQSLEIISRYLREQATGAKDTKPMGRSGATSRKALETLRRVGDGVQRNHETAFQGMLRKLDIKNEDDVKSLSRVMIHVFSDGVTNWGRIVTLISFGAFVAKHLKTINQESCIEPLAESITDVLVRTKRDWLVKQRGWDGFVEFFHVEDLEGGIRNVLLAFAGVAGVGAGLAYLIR

With `COc1ccc(NC2=NC(=O)/C(=C\C=C\c3ccco3)S2)cc1`, the IC50 was 25900 nM (not active) in series [1] and 3020 nM (active) in [2]. For the same molecule, the EC50 in series [3] was > 260000 nM (inactive).
`CCN=C(S)NNC(=O)CCn1c2ccccc2c2ccccc21`: the results for the AC50 in [4] and in series [6] were 14100 nM (inconclusive) and “inconclusive”, respectively. For the same molecule, the concentration giving a half-maximal response (EC50) in series [5] was > 100000 nM (not active).
With `O=C(CN1C(=O)c2ccccc2S1(=O)=O)c1ccc2c(c1)OCCCO2`, the AC50 in series [7] was 69.5 nM (active); in series [8], < 260 nM (active); in [10], < 260 nM (active); in series [11], 725 nM (active); in series [12] it was < 68 nM (active); in [15] it was 631 nM (active). In addition, the AC50 in series [16] is > 52000 nM (inactive); in [18] it was 50300 nM (active); in series [19], 262 nM (active); in [25] it was < 260 nM (active). The IC50 was < 160 nM (active) in series [9], > 80000 nM (inactive) in series [20] and 816 nM (active) in series [21]. In addition, the half-maximal effective concentration (EC50) is 15 nM (active) in [13]; < 100 nM (active) in series [14]; 21 nM (active) in [17]; < 100 nM (active) in series [22]; < 160 nM (active) in series [23]; < 100 nM (active) in series [24]. In addition, the 50% effective concentration (EC50) in series [26] was 16 nM (active).
Turning to `O=C(O)c1cc2cc(O)ccc2[nH]1`, the 50% inhibitory concentration (IC50) in series [27] was 1770 nM (not active).
Consider `COc1cccc(C(=O)n2c3ccccc3c3ccccc32)c1`, for which the EC50 in [28] was > 500000 nM (not active).
Consider `CCN(CC)S(=O)(=O)c1ccc2ncc(C(=O)NCCC3=CCCCC3)c(O)c2c1`, for which, in series [29], the CC50 is > 40000 nM (active). In addition, the results for the EC50 in series [30], in [31] and in [32] were 13800 nM (not active), 13300 nM (not active) and 10100 nM (not active), respectively.
